Source: patent US6534542B2, “(2-hydroxy)ethyl-thioureas useful as modulators of α2B adrenergic receptors” (Allergen Sales, Inc., priority 2001, dated 2003)

Experiments:
alpha2B receptor = target: T1, alpha2B receptor (Homo sapiens, UniProt P18089); test: Receptor Selection and Amplification Technology (RSAT) assay, alpha2B; assay type: cell-based; settings: NIH-3T3 cells; for EC50: NA = not active at concentrations less than 10 micromolar, read-out: RSAT EC50 (nM) Alpha 2B; for fraction of activity of the standard (brimonidine) attained, Alpha 2B (number in parenthesis): ratio of maximal effect to that of standard full agonist brimonidine
T1 construct: expressed in transfected cells; host or cells: NIH-3T3
T1 sequence (P18089 1-450): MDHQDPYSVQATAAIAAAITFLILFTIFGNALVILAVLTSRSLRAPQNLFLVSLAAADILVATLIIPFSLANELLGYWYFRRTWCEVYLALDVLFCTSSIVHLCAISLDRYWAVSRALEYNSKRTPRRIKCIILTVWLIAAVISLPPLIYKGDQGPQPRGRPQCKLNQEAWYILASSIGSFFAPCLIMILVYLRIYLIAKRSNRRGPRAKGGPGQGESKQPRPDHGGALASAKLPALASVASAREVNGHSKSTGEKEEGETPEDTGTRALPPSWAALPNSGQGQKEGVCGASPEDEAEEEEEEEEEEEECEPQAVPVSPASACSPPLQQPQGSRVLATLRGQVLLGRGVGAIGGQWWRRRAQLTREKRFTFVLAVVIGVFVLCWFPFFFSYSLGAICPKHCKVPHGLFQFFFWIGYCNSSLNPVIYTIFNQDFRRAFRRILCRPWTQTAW
Excerpt: (§1) The compounds of the invention are agonists of α2 adrenergic receptors, particularly they tend to be specific or selective agonists of α2B and/or to a lesser extent α2C adrenergic receptors, in preference over α2A adrenergic receptors. […] Al., 1995, Pharmacol. Toxicol. 76, pp. 308-311 (incorporated herein by reference) and is also described below. Another reference pertinent to this assay is Conklin et al. (1993) Nature 363:274-6, also incorporated herein by reference.
(§2) The RSAT assay measures a receptor-mediated loss of contact inhibition that results in selective proliferation of receptor-containing cells in a mixed population of confluent cells. The increase in cell number is assessed with an appropriate transfected marker gene such as β-galactosidase, the activity of which can be easily measured in a 96-well format. Receptors that activate the G protein, Gq, elicit this response. Alpha2 receptors, which normally couple to Gi, activate the RSAT response when coexpressed with a hybrid Gq protein that has a Gi receptor recognition domain, called Gq/i5^2.
(§3) NIH-3T3 cells are plated at a density of 2×10^6 cells in 15 cm dishes and maintained in Dulbecco's modified Eagle's medium supplemented with 10% calf serum. One day later, cells are cotransfected by calcium phosphate precipitation with mammalian expression plasmids encoding p-SV-β-galactosidase (5-10 μg), receptor (1-2 μg) and G protein (1-2 μg). 40 μg salmon sperm DNA may also be included in the transfection mixture. Fresh media is added on the following day and 1-2 days later, cells are harvested and frozen in 50 assay aliquots. Cells are thawed and 100 μl added to 100 μl aliquots of various concentrations of drugs in triplicate in 96-well dishes. Incubations continue 72-96 hr at 37°. After washing with phosphate-buffered saline, β-galactosidase enzyme activity is determined by adding 200 μl of the chromogenic substrate (consisting of 3.5 mM o-nitrophenyl-β-D-galactopyranoside and 0.5% nonidet P-40 in phosphate buffered saline), incubating overnight at 30 and measuring optical density at 420 nm. The absorbance is a measure of enzyme activity, which depends on cell number and reflects a receptor-mediated cell proliferation. The EC50 and maximal effect of each drug at each alpha2 receptor is determined. The efficacy or intrinsic activity is calculated as a ratio of the maximal effect of the drug to the maximal effect of a standard full agonist for each receptor subtype. Brimonidine, also called […], the chemical structure of which is shown below, is used as the standard agonist for the alpha2A, alpha2B and alpha2C receptors. [drawing 6]
(§4) The results of the RSAT assay with several exemplary compounds of the invention are disclosed in Table 3. […] NA stands for “not active” at concentrations less than 10 micromolar. As is known EC50 is the concentration at which half of a given compound's maximal activity is observed. It can be seen from the table that the compounds of the invention are specific or selective agonists of α2B and/or α2C adrenergic receptors, with no agonist like activity or only with insignificant agonist-like activity on α2A receptors.

[1] = tested on: rats with ligated L5 and L6 spinal nerves; test: Alleviation of chronic pain: tactile allodynia after L5/L6 spinal nerve ligation (von Frey hairs); assay type: in vivo, rat; settings: 30 minutes after administration, ±SEM
Excerpt: A model for chronic pain (in particular peripheral neuropathy such as causalgia) involves the surgical ligation of the L5 (and optionally the L6) spinal nerves on one side in experimental animals. Rats recovering from the surgery gain weight and display a level of general activity similar to that of normal rats. However, these rats develop abnormalities of the foot, wherein the hindpaw is moderately everted and the toes are held together. More importantly, the hindpaw on the side affected by the surgery appears to become sensitive to pain from low-threshold mechanical stimuli, such as that producing a faint sensation of touch in a human, within about 1 week following surgery. This sensitivity to normally non-painful touch is called “tactile allodynia” and lasts for at least two months. The response includes lifting the affected hindpaw to escape from the stimulus, licking the paw and holding it in the air for many seconds. None of these responses is normally seen in the control group.
Rats are anesthetized before surgery. The surgical site is shaved and prepared either with betadine or Novacaine. Incision is made from the thoracic vertebra XIII down toward the sacrum. Muscle tissue is separated from the spinal vertebra (left side) at the L4-S2 levels. The L6 vertebra is located and the transyerse process is carefully removed with a small rongeur to expose the L4-L6 spinal nerves. The L5 and L6 spinal nerves are isolated and tightly ligated with 6-0 silk thread. The same procedure is done on the right side as a control, except no ligation of the spinal nerves is performed. A complete hemostasis is confirmed, then the wounds are sutured. A small amount of antibiotic ointment is applied to the incised area, and the rat is transferred to the recovery plastic cage under a regulated heat-temperature lamp. On the day of the experiment, at least seven days after the surgery, typically six rats per test group are administered the test drugs by intraperitoneal (i.p.) injection or oral gavage. For i.p. injection, the compounds are formulated in approximately 10 to 50% DMSO and given in a volume of 1 ml/kg body weight.
Tactile allodynia is measured prior to and 30 minutes after drug administration using von Frey hairs that are a series of fine hairs with incremental differences in stiffness. Rats are placed in a plastic cage with a wire mesh bottom and allowed to acclimate for approximately 30 minutes. The von Frey hairs are applied perpendicularly through the mesh to the mid-plantar region of the rats' hindpaw with sufficient force to cause slight buckling and held for 6-8 seconds. The applied force has been calculated to range from 0.41 to 15.1 grams. If the paw is sharply withdrawn, it is considered a positive response. A normal animal will not respond to stimuli in this range, but a surgically ligated paw will be withdrawn in response to a 1-2 gram hair. The 50% paw withdrawal threshold is determined using the method of Dixon, […]. The post-drug threshold is compared to the pre-drug threshold and the percent reversal of tactile sensitivity is calculated based on a normal threshold of 15.1 grams. The results are expressed in per cent (%) MPE, where the MPE value reflects the percentage reversal of pain threshold to that of a normal animal (100%). Table 4 below indicates results of this test with Compounds 8, 34 and 40 of the invention, administered i.p., in intrathecal and oral doses.

alpha2C receptor = target: T2, alpha2C receptor (Homo sapiens, UniProt P18825); test: Receptor Selection and Amplification Technology (RSAT) assay, alpha2C; assay type: cell-based; settings: NIH-3T3 cells; for EC50: NA = not active at concentrations less than 10 micromolar, read-out: RSAT EC50 (nM) Alpha 2C; for fraction of activity of the standard (brimonidine) attained, Alpha 2C (number in parenthesis): ratio of maximal effect to that of standard full agonist brimonidine
T2 construct: expressed in transfected cells; host or cells: NIH-3T3
T2 sequence (P18825 1-462): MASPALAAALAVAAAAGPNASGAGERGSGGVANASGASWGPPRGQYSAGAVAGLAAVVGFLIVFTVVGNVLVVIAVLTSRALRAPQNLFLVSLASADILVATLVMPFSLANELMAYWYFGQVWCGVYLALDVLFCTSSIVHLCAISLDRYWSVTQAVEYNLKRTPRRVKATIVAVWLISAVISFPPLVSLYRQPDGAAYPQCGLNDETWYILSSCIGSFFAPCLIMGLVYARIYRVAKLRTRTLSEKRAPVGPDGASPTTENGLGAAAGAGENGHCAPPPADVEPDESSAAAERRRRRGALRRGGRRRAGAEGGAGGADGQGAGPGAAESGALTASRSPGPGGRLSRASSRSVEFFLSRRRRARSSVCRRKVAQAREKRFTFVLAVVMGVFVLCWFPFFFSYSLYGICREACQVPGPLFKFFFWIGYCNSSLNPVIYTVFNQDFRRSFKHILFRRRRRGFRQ
Excerpt: as §1, §2, §3, §4

Row | SMILES | EC50 (alpha2B receptor) | fraction of activity of the standard (brimonidine) attained, Alpha 2B (number in parenthesis) (alpha2B receptor) | EC50 (alpha2C receptor) | fraction of activity of the standard (brimonidine) attained, Alpha 2C (number in parenthesis) (alpha2C receptor) | % MPE ([1]; IP dose 10 μg/kg) | % MPE ([1]; IP dose 30 μg/kg) | % MPE ([1]; IP dose 100 μg/kg) | % MPE ([1]; IP dose 300 μg/kg) | % MPE ([1]; IP dose 1000 μg/kg) | % MPE ([1]; Intrathecal dose 30 μg) | % MPE ([1]; Intrathecal dose 100 μg) | % MPE ([1]; Intrathecal dose 300 μg)
1 | CC1=CCCC1NC(=S)NCCO (stereo not drawn) [Compound 14, 1-(2-Hydroxy-ethyl)-3-(2-methyl-cyclopent-2-enyl)-thiourea] | 97 nM | (0.95) | 3000 nM | (0.3) | – | – | – | – | – | – | – | –
2 | CCCCC1=C(CNC(=S)NCCO)CCC1 [Compound 25, 1-(2-Butyl-cyclopent-1-enylmethyl)-3-(2-hydroxy-ethyl)-thiourea] | > 2000 nM | (0.51) | 738 nM | (0.69) | – | – | – | – | – | – | – | –
3 | CC1=C(CNC(=S)NCCO)CCC1 [Compound 27, 1-(2-Methyl-cyclopent-1-enylmethyl)-3-(2-hydroxy-ethyl)-thiourea] | 135 nM | (0.75) | 1730 nM | (0.3) | – | – | – | – | – | – | – | –
4 | OCCNC(=S)NC1C=CCCC1 (stereo not drawn) [Compound 35, 1-(Cyclohex-2-enyl)-3-(2-hydroxy-ethyl)-thiourea] | 73 nM | (0.58) | 630 nM | (0.4) | – | – | – | – | – | – | – | –

The next molecules have a lower EC50 (alpha2B receptor) than those just listed; values first:

Row | EC50 (alpha2B receptor) | fraction of activity of the standard (brimonidine) attained, Alpha 2B (number in parenthesis) (alpha2B receptor) | EC50 (alpha2C receptor) | fraction of activity of the standard (brimonidine) attained, Alpha 2C (number in parenthesis) (alpha2C receptor) | SMILES | % MPE ([1]; IP dose 10 μg/kg) | % MPE ([1]; IP dose 30 μg/kg) | % MPE ([1]; IP dose 100 μg/kg) | % MPE ([1]; IP dose 300 μg/kg) | % MPE ([1]; IP dose 1000 μg/kg) | % MPE ([1]; Intrathecal dose 30 μg) | % MPE ([1]; Intrathecal dose 100 μg) | % MPE ([1]; Intrathecal dose 300 μg)
5 | 17 nM | (0.79) | – | – | OCCNC(=S)NCC1CC=CCC1 (stereo not drawn) [Compound 8, 1-Cyclohex-3-enylmethyl-3-(2-hydroxy-ethyl)-thiourea] | 1.5 ± 0.9 % MPE | 47 ± 8.6 % MPE | 63 ± 9.1 % MPE | 56 ± 6.5 % MPE | 52 ± 8.4 % MPE | 0.02 ± 0.6 % MPE | 1.3 ± 0.6 % MPE | 20 ± 5.1 % MPE
6 | 6 nM | (0.8) | 253 nM | (0.37) | CC1=C(C)C(NC(=S)NCCO)CCC1 (stereo not drawn) [Compound 31, 1-(2,3-Dimethyl-cyclohex-2-enyl)-3-(2-hydroxy-ethyl)-thiourea] | – | – | – | – | – | – | – | –
7 | 12 nM | (0.71) | 251 nM | (0.98) | CC1=CCCCC1NC(=S)NCCO (stereo not drawn) [Compound 33, 1-(2-Hydroxy-ethyl)-3-(2-methyl-cyclohex-2-enyl)-thiourea] | – | – | – | – | – | – | – | –
8 | 11 nM | (0.88) | 59 nM | (0.62) | CCC1=CCCCC1NC(=S)NCCO (stereo not drawn) [Compound 34, 1-(2-Hydroxy-ethyl)-3-(2-ethyl-cyclohex-2-enyl)-thiourea] | 0.4 ± 1.0 % MPE | 48 ± 6.1 % MPE | 66 ± 11 % MPE | 96 ± 3.7 % MPE | – | – | – | –
